The source of these data is patent US20080125475A1 (priority 2006, published 2008).

Read-outs that look alike come from different tables or passages of the source.

One series has as its target T1, ORL1 receptor (Homo sapiens, UniProt P41146).
T1 construct: expressed in transfected cells; host or cells: CHO (recombinant CHO-ORL1 cells), membranes
The series is described as follows: biochemical. Format: binding.

Series [1] has as its system Sprague-Dawley rats. The experiment in a line: animal or person. The conditions noted are these: Rattus norvegicus, iv, read-out: ED50 acute. It is filed as in vivo.
For series [2], the system named is Sprague-Dawley rats. The experiment in a line: animal or person. Format: in vivo, rat. The conditions noted are these: iv.
The subject of another series is mice. The conditions noted are these: mouse, in vivo.

T1 sequence (P41146 whole entry): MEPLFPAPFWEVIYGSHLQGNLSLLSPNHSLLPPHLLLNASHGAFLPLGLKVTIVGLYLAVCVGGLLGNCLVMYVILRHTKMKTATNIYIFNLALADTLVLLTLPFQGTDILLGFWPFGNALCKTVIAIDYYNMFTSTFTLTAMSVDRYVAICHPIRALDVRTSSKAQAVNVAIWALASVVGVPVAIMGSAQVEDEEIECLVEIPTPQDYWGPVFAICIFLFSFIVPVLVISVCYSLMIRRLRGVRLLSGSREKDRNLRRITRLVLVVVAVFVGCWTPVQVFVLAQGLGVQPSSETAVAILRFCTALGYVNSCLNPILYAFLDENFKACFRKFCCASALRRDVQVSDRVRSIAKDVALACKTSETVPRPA

The Ki is a dissociation constant, usually derived from enzyme kinetics or from competition with a known ligand. A high value points to weaker binding. By ED50 is commonly meant the dose that gives a 50% effect, or the effect in half of the subjects. As for `CCC(=O)C(C[C@@H](C)N(C)C)(c1ccccc1)c1ccccc1` [Compound B7, L-methadone], the Ki at ORL1 receptor is more than 1000 nM. Further, the ED50 in the series on Sprague-Dawley rats [1] came out at 0.21 mg/kg; with Sprague-Dawley rats [2] (Rattus norvegicus, read-out: ED50 chronic), 0.49 mg/kg. Also, the “Enhancement of action factor” value in the series with Sprague-Dawley rats [2] (rat, in vivo) amounted to 0.4x. In the series on mice, the naloxone-induced withdrawal jumping result is “reduced in comparison with B1-B4 but is still significant”.
